Among the data in PubChem BioAssay (NCI) are TGI and GI50 values, retold here.

One may read the TGI as the concentration giving total growth inhibition. Higher therefore signals less potent growth arrest. In general, GI50 refers to the concentration that inhibits growth by half.

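The compound was tested at five concentrations on cells cultured in 96-well plates, with a 48-hour exposure period. Here, GI50 denotes the concentration required for 50% inhibition of growth. Definition used: TGI = concentration required for complete inhibition of growth.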

Common to all, as to test: DTP human tumour cell line panel, 48 h
Assay [1] has as its system HOP-62 NSCLC.
In assay [2] the test system is COLO 205 colon.
Assay [3] deals with ACHN renal.
Assay [4] deals with MALME-3M melanoma.
Assay [5] relates to A498 renal.
Assay [6] has as its system HCT-15 colon.
For assay [7], the system named is M14 melanoma.
Assay [8] has as its system NCI/ADR-RES ovarian.
In assay [9] the test system is OVCAR-3 ovarian.
Assay [10] concerns SNB-75 CNS.
In assay [11] the test system is UACC-257 melanoma.
Assay [12] deals with DU-145 prostate.

As to `COCC1OCCN1C` (stereo not drawn), the TGI in assay [1], in assay [2], in assay [3], in assay [4], in assay [5] and in assay [6] was over 100 µM each time. Further, the TGI in [7], in [8], in assay [9], in [10] and in assay [11] was over 100 µM each time.
On to `CC[N+](CC)(CC)Cc1cn(S(=O)(=O)c2ccccc2)c2ccccc12`, for which the concentration for total growth inhibition (TGI) in assay [1], in [2], in assay [3], in [4], in assay [6] and in assay [7] was over 100 µM each time. For the same compound, the TGI in assay [9], in [10] and in assay [11] was over 100 µM each time.
As for `CC(C)CC(NC(=O)OCc1ccccc1)C(=O)NCCCCC(N)C(=O)NC(CCCCNC(=O)C(CC(C)C)NC(=O)OCc1ccccc1)C(=O)NC(CCCCNC(=O)C(CC(C)C)NC(=O)OCc1ccccc1)C(=O)NC(CCCCNC(=O)C(CC(C)C)NC(=O)OCc1ccccc1)C(=O)NC(CCCCNC(=O)C(CC(C)C)NC(=O)OCc1ccccc1)C(=O)NC(CCCCNC(=O)C(CC(C)C)NC(=O)OCc1ccccc1)C(=O)O` (stereo not drawn), the TGI in assay [1], in assay [3], in [12], in assay [4], in [5] and in assay [6] was over 100 µM throughout. Also, the TGI in [9] and in assay [11] was over 100 µM in each case.
On to `C1=Cc2nc1c(-c1ccccc1)c1ccc([n-]1)c(-c1ccccc1)c1nc(c(-c3ccccc3)c3ccc([n-]3)c2-c2ccccc2)C=C1.[Zn+2]`, for which the TGI in assay [1], in assay [2], in assay [3], in assay [4], in assay [6] and in [7] was over 100 µM throughout. For the same compound, the TGI in assay [9], in assay [10] and in assay [11] was over 100 µM throughout.
Take `CC(C)C1=CC(=O)C(C)(C2=NC(C)(C)CO2)c2ccccc21` (stereo not drawn): the TGI in assay [1], in assay [2], in [3], in assay [4], in assay [6] and in assay [7] was over 100 µM in each case. Also, the TGI in assay [9], in assay [10] and in assay [11] was over 100 µM each time.
In the case of `Clc1ccc2c(Cl)ncnc2c1I`, the TGI in assay [1], in [2], in [4], in assay [6], in assay [7] and in assay [9] was over 100 µM throughout. Further, the total growth inhibition concentration (TGI) in assay [10] is 75 µM; in assay [11] it was over 100 µM.
For `Cc1nc2c(s/c(=N\N)n2-c2ccccc2)c(=O)[nH]1`, the concentration for total growth inhibition (TGI) in assay [1], in assay [2], in [3], in [4], in assay [5] and in assay [6] was over 100 µM in each case. Further, the TGI in assay [7], in assay [9], in assay [10] and in assay [11] was over 100 µM in each case.
On to `CO[C@H]1C[C@@H]2CC[C@@H](C)[C@@](O)(O2)C(=O)C(=O)N2CCCC[C@H]2C(=O)O[C@H]([C@H](C)C[C@@H]2CC[C@@H](OC(=O)C(C)(CO)CO)[C@H](OC)C2)CC(=O)[C@H](C)/C=C(\C)[C@@H](O)[C@@H](OC)C(=O)[C@H](C)C[C@H](C)/C=C/C=C/C=C/1C`, for which the GI50 in [1] is under 0.0202 µM; in [12] it was 0.0379 µM; in assay [6] it was under 0.0222 µM; in assay [7], 16 µM; in assay [8], 1.01 µM; in assay [9], 1.78 µM. Further, the TGI is over 100 µM in [1]; over 60.4 µM in [2]; over 100 µM in assay [3]; over 100 µM in assay [12]; over 100 µM in [6]; over 100 µM in assay [7]. Further, the TGI in assay [8] is 72.5 µM; in [9], over 100 µM; in [10] it was 24.4 µM; in assay [11] it was 51.5 µM.
On to `COc1cc(/C=C2\CCC(C)c3c2nc(N)c(C#N)c3-c2cc(OC)c(OC)c(OC)c2)cc(OC)c1OC` (stereo not drawn), for which the TGI in assay [1], in assay [3], in [12], in assay [5], in [6] and in assay [7] was over 100 µM throughout. Also, the TGI in assay [10] was 15 µM; in [11] it was over 100 µM.
On to `O=C(CSc1nnc(-c2ccc(N=Cc3ccc(Cl)cc3)cc2)o1)Nc1ccccc1`, for which the TGI in assay [1], in assay [2], in assay [3], in [4], in [6] and in assay [7] was over 100 µM in each case. In addition, the TGI in assay [10] and in assay [11] was over 100 µM each time.
`C=C(CO)[C@H]1CC/C(C)=C/CC/C(C)=C/C/C=C(\C)[C@H](O)C1`: the TGI in [1] is over 100 µM; in assay [2], 59.9 µM; in assay [3] it was 69.7 µM; in assay [12] it was over 100 µM; in assay [6], over 100 µM; in assay [8], 90.3 µM. In addition, the values for the TGI in assay [9], in assay [10] and in assay [11] were 93.6 µM, 78.9 µM and 39.7 µM, respectively.
Consider `O=S(=O)([N-]c1nc2ccccc2nc1-[n+]1ccccc1)c1ccccc1`, for which the TGI in assay [1], in [2], in assay [3], in assay [4], in [6] and in assay [7] was over 100 µM in each case. For the same compound, the TGI in assay [8], in [9], in assay [10] and in assay [11] was over 100 µM each time.
Regarding `Cc1cc(Cl)ccc1NC(=O)/C(CC(=O)CC(c1ccccc1)c1c(O)c2ccccc2oc1=O)=N\O` (stereo not drawn), the TGI in assay [1], in assay [2], in [3], in [12], in [6] and in [7] was over 100 µM each time. The TGI in assay [8], in assay [9], in assay [10] and in [11] was over 100 µM throughout.
In the case of `c1ccc2c(NCCCCCCCCNc3cccc4ccccc34)cccc2c1`, the TGI was over 100 µM in assay [1]; 35.4 µM in [2]; 80.6 µM in [3]; 46.5 µM in [4]; over 100 µM in assay [5]; 84.7 µM in [6]. Moreover, the total growth inhibition concentration (TGI) was 39.6 µM in [7], over 100 µM in assay [9], 83.2 µM in [10] and 51.7 µM in [11].
On to `[N-]=[N+]=Nc1cc(=O)n(-c2ccccc2)c(=O)n1-c1ccccc1`, for which the concentration for total growth inhibition (TGI) in [1], in assay [2], in [3], in assay [4], in assay [7] and in assay [8] was over 100 µM in each case. The TGI in assay [9], in assay [10] and in assay [11] was over 100 µM each time.
On to `BrC12C3C4C5C(C(C43)C13OCCO3)C52` (stereo not drawn), for which the TGI in [1], in assay [2], in assay [3], in [4], in [5] and in [9] was over 100 µM in each case. Moreover, the TGI in assay [10] and in [11] was over 100 µM in each case.
Consider `CCOC(=O)C(NC(=O)NCc1ccc(F)cc1)C(F)(F)F` (stereo not drawn), for which the total growth inhibition concentration (TGI) in assay [2], in assay [3], in assay [5], in assay [6], in assay [7] and in [8] was over 100 µM each time. The TGI in [10] and in assay [11] was over 100 µM in each case.
With `CCCCC1(OC(=O)CCC(=O)O)CCC2(CCC(C)C(C/C=C(C)/C=C/C(O)C(C)/C=C/C(=O)O)O2)OC1CC/C(C)=C/C(=O)O` (stereo not drawn), the TGI in [1] amounted to 4.96 µM; in [2], 35.1 µM; in assay [3], 26.2 µM; in assay [4], 20.3 µM; in assay [5], 12.6 µM; in assay [6] it was 12.4 µM. Moreover, the TGI came out at 4.52 µM in [7], 11.2 µM in [9], 6.74 µM in assay [10] and 2.57 µM in assay [11].
For `O=C1OC(c2ccccc2)(c2ccccc2)CC1CN1CCOCC1` (stereo not drawn), the TGI is over 100 µM in assay [1]; 18.4 µM in [2]; 32 µM in [3]; 26.6 µM in assay [4]; over 100 µM in [5]; 29.6 µM in assay [6]. The TGI was found to be 31.4 µM in assay [7], 28.9 µM in assay [9], 49.1 µM in [10] and 20.9 µM in assay [11].
For `Cc1cccc(NC(=O)CSc2nnc(Cc3ccccc3)o2)c1`, the TGI in assay [1], in [2], in assay [3], in assay [4], in [5] and in [6] was over 100 µM each time. Moreover, the TGI in assay [7], in assay [9], in assay [10] and in [11] was over 100 µM in each case.
`Cc1nc(Nc2ccccc2)sc1C(=O)NNC(N)=O`: the TGI in assay [1], in [2], in [3], in assay [4], in assay [5] and in assay [7] was over 100 µM each time. The TGI in assay [9] was over 100 µM; in assay [10], 80.7 µM; in assay [11], 71.6 µM.
On to `O=C(/C=C(\O)C(=O)O)/C=C(\O)c1ccccc1Cl`, for which the concentration for total growth inhibition (TGI) in [1], in assay [2], in assay [3], in assay [4], in assay [5] and in assay [6] was over 100 µM each time. The TGI in assay [7], in assay [9], in assay [10] and in assay [11] was over 100 µM each time.
With `CC1N(O)C(c2ccccc2)C(c2ccccc2)=[N+]1[O-]` (stereo not drawn), the TGI in assay [1], in assay [2], in [3], in assay [4], in assay [5] and in assay [6] was over 100 µM in each case. Moreover, the TGI in assay [7], in [8], in [9], in assay [10] and in [11] was over 100 µM each time.
`CN(C)c1cccc(-c2cc(=O)c3cc4c(cc3[nH]2)OCO4)c1`: the TGI in [1] was over 73.9 µM; in assay [2], 0.823 µM; in [3], over 37 µM; in [5], 4.58 µM; in assay [6] it was over 90 µM; in [7], 0.461 µM. For the same compound, the TGI in assay [9] is 0.0575 µM; in assay [11], over 100 µM.
Consider `COc1ccc2c(c1)CC1NC2Cc2ccccc21` (stereo not drawn), for which the TGI in [1], in assay [2], in assay [3], in assay [4], in [5] and in assay [6] was over 100 µM throughout. Also, the TGI in [7], in [9], in assay [10] and in assay [11] was over 100 µM in each case.
For the compound `CCOC(=O)C1=C(C)C2C3C(=O)NC(=O)C3C1(C)C1C(=O)NC(=O)C21` (stereo not drawn), the TGI in assay [1], in assay [2], in assay [3], in [4], in [5] and in assay [6] was over 100 µM in each case. In addition, the TGI in [7], in assay [9], in [10] and in assay [11] was over 100 µM throughout.
